This is an account of results in patent publication US10689377B2 (Mirati Therapeutics, Inc., priority 2017, dated 2020).

Bounds are passed on as bounds.

In experiment [1] the target is KRas G12C (Homo sapiens, UniProt P01116, C118S/C51S/C80L/G12C). The experiment is described as follows: KRas G12C Modification Assay (LCMS detection of covalent adduct). In kind it is binding. Here is the method:
A 10 μL aliquot of each protein solution was then transferred to a 384 well microtiter plate. Initial compound stocks were generated at fifty times their desired final assay concentration in DMSO.
Exemplary compounds of Formula (I) were diluted 25-fold into K-Ras Assay Buffer to a final of two times their final concentration. A 10 μL aliquot of each diluted compound solution was then added to each of the protein solutions in the microtiter plate to initiate reaction. […] At each time point, the reactions were quenched with 20 μL of a 25 mM acetic acid solution. […] Once all reactions were quenched, the plates were heat sealed and the samples were injected into a LC/MS system for data acquisition.
Samples were injected in their liquid phase onto a C-3 reverse phase column to remove assay buffer and prepare the samples for mass spectrometer. The proteins were eluted from the column using an acetonitrile gradient and fed directly into the mass analyzer. Initial raw data analysis took place in Agilent MassHunter software immediately post data acquisition.
Raw data analysis of the intact protein was exclusively a deconvolution of the multiple charge states of each protein in solution using a maximum entropy deconvolution provided in Mass Hunter. To minimize complexity, only the data over limited mass ranges were considered for analysis, with a minimum of one Dalton mass step intervals. The heights of all masses identified during raw data analysis were exported to be further analyzed in Spotfire® data analysis software.
Final data analysis was a multistep process in the Spotfire® data analysis software package. Briefly, each protein mass was calculated as a percent of the total signal of that sample, that percentage was then normalized to the percentage of signal of the protein in the absence of reactive compounds. Those normalized signals were reported as normalized percent of control (POC). […] Key: “A”≤25% POC; “B”>25% POC-≤50% POC; “C”>50% POC and ND=not determined.

The target of experiment [2] is KRas G12C (Homo sapiens, UniProt P01116, G12C). As to the kind of experiment: Cellular inhibition of KRas G12C measured by Phospho-ERK in NCI-H358 cells. The class given is cell-based. The note with it: pERK(Thr202/Tyr204) normalized with GAPDH, NCI-H358 cells, 3 hours; read-out: IC50. In a few lines:
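Following 8-12 h attachment, NCI-H358 cells got serially diluted compound (0.5% DMSO) for 3 hours. Cells were then fixed, permeabilized with cold methanol, and stained for pERK(Thr202/Tyr204) and GAPDH. Ratios were converted to percent of DMSO control, with IC50 obtained by four-parameter regression.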

Setting [3] is: normalized percent of control, 5 μM concentration for 3 hours.

What is called IC50 is the point on the concentration scale where inhibition reaches its midpoint. With `C=CC(=O)N1CCN(c2nc(OC[C@H]3CCCN3C)nc3c2CCN(c2cccc4ccccc24)C3)CC1CC#N` (stereo partly drawn) [Example 183, 2-[4-[2-[[(2R)-1-methylpyrrolidin-2-yl]methoxy]-7-(1-naphthyl)-6,8-dihydro-5H-pyrido[3,4-d]pyrimidin-4-yl]-1-prop-2-enoyl-piperazin-2-yl]acetonitrile], in experiment [1] (setting [3]), the POC result is reported as “C (“C”>50% POC)”. Besides, in experiment [2], the IC50 fell in the range of 0.1 to 1000 nM.

For the compound `C=CC(=O)N1CCN(c2nc(OCCN3CCC[C@@H](F)C3)nc3c2CCN(c2cc(O)cc4ccccc24)C3)CC1` [Example 207, (R)-1-(4-(2-(2-(3-fluoropiperidin-1-yl)ethoxy)-7-(3-hydroxynaphthalen-1-yl)-5,6,7,8-tetrahydropyrido[3,4-d]pyrimidin-4-yl)piperazin-1-yl)prop-2-en-1-one], the POC entry in experiment [1] (setting [3]) is given as “C (“C”>50% POC)”. The IC50 in experiment [2] is over 1000 nM.

`Cc1cccc2cccc(N3CCc4c(nc(OCCCN5C[C@@H]6C[C@H]5CO6)nc4N4CCN(C(=O)/C=C/CF)[C@@H](CC#N)C4)C3)c12` [Example 565, 2-[(2S)-1-[(E)-4-Fluorobut-2-enoyl]-4-[7-(8-methyl-1-naphthyl)-2-[3-[(1S,4S)-2-oxa-5-azabicyclo[2.2.1]heptan-5-yl]propoxy]-6,8-dihydro-5H-pyrido[3,4-d]pyrimidin-4-yl]piperazin-2-yl]acetonitrile]: the POC result in experiment [1] (setting [3]) is listed as “C (“C”>50% POC)”. Besides, the IC50 in experiment [2] was 0.1 to 1000 nM.

Consider `C=C(F)C(=O)N1CCN(c2nc(OC[C@@H]3CCCN3C)nc3c2CCN(c2cccc4cccc(C(C)C)c24)C3)C[C@@H]1CC#N` [Example 591], for which the POC entry in experiment [1] (setting [3]) is recorded as “B (“B”>25% POC-≤50% POC)”. The IC50 in experiment [2] was over 1000 nM.

Consider `C=CC(=O)N1CCN(c2nc(OC[C@@H]3CCCN3C)nc3c2CCN(c2cccc4ccccc24)C3)CC1CC#N` (stereo partly drawn) [Example 147, 2-[4-[2-[[(2S)-1-methylpyrrolidin-2-yl]methoxy]-7-(1-naphthyl)-6,8-dihydro-5H-pyrido[3,4-d]pyrimidin-4-yl]-1-prop-2-enoyl-piperazin-2-yl]acetonitrile], for which, in experiment [1] (setting [3]), the POC entry is “C (“C”>50% POC)”. For the same compound, in experiment [2], the IC50 was 0.1 to 1000 nM.

As for `Cc1cccc(N2CCc3c(nc(OC[C@@H]4CCCN4C)nc3N3CCN(C(=O)C4=CCC4)[C@@H](CC#N)C3)C2)c1C` [Example 392, 2-((S)-1-(cyclobut-1-ene-1-carbonyl)-4-(7-(2,3-dimethylphenyl)-2-(((S)-1-methylpyrrolidin-2-yl)methoxy)-5,6,7,8-tetrahydropyrido[3,4-d]pyrimidin-4-yl)piperazin-2-yl)acetonitrile], the POC result in experiment [1] (setting [3]) was “C (“C”>50% POC)”. Further, the IC50 in experiment [2] was over 1000 nM.

Turning to `C=CC(=O)N1CCN(c2nc(OCCCN3C[C@@H](F)[C@@H](F)C3)nc3c2CCN(c2cc(O)cc4ccccc24)C3)CC1` [Example 208, 1-(4-(2-(3-((3R,4S)-3,4-difluoropyrrolidin-1-yl)propoxy)-7-(3-hydroxynaphthalen-1-yl)-5,6,7,8-tetrahydropyrido[3,4-d]pyrimidin-4-yl)piperazin-1-yl)prop-2-en-1-one], the POC entry in experiment [1] (setting [3]) was “C (“C”>50% POC)”. The half-maximal inhibitory concentration (IC50) in experiment [2] is over 1000 nM.

With `Cc1cccc2cccc(N3CCc4c(nc(OC[C@@H]5C[C@@H](F)CN5C)nc4N4CCN(C(=O)/C=C/CF)[C@@H](CC#N)C4)C3)c12` [Example 578, 2-[(2S)-1-[(E)-4-Fluorobut-2-enoyl]-4-[2-[[(2S,4R)-4-fluoro-1-methyl-pyrrolidin-2-yl]methoxy]-7-(8-methyl-1-naphthyl)-6,8-dihydro-5H-pyrido[3,4-d]pyrimidin-4-yl]piperazin-2-yl] acetonitrile], the POC result in experiment [1] (setting [3]) is reported as “C (“C”>50% POC)”. The IC50 in experiment [2] was in the range of 0.1 to 1000 nM.

With `C=C(F)C(=O)N1CCN(c2nc(OC[C@@H]3CCCN3C)nc3c2CCN(c2cccc4cccc(CO)c24)C3)C[C@@H]1CC#N` [Example 567, 2-[(2S)-1-(2-Fluoroprop-2-enoyl)-4-[7-[8-(hydroxymethyl)-1-naphthyl]-2-[[(2S)-1-methylpyrrolidin-2-yl]methoxy]-6,8-dihydro-5H-pyrido[3,4-d]pyrimidin-4-yl]piperazin-2-yl]acetonitrile], in experiment [1] (setting [3]), the POC entry is reported as “C (“C”>50% POC)”. Also, in experiment [2], the IC50 is over 1000 nM.

As to `C=C(F)C(=O)N1CCN(c2nc(OC[C@@H]3CCCN3C)nc3c2CCN(c2cccc4cccc(Br)c24)C3)C[C@@H]1CC#N` [Example 588, 2-((S)-4-(7-(8-Bromonaphthalen-1-yl)-2-(((S)-1-methylpyrrolidin-2-yl)methoxy)-5,6,7,8-tetrahydropyrido[3,4-d]pyrimidin-4-yl)-1-(2-fluoroacryloyl)piperazin-2-yl)acetonitrile], the POC result in experiment [1] (setting [3]) was “C (“C”>50% POC)”. The half-inhibitory concentration (IC50) in experiment [2] is 0.1 to 1000 nM.

Turning to `C=CC(=O)N1CCN(c2nc(OC[C@H]3CCCN3C)nc3c2CCN(c2cccc4ccccc24)C3)C[C@@H]1CC#N` [Example 267, 2-((S)-1-acryloyl-4-(2-(((R)-1-methylpyrrolidin-2-yl)methoxy)-7-(naphthalen-1-yl)-5,6,7,8-tetrahydropyrido[3,4-d]pyrimidin-4-yl)piperazin-2-yl)acetonitrile], the POC entry in experiment [1] (5 µM) is reported as “C (key: “A”≤25% POC; “B”>25% POC-≤50% POC; “C”>50% POC)”. Further, the 50% inhibitory concentration (IC50) in experiment [2] lay in the range of 0.1 to 1000 nM.

Consider `C=CC(=O)N1CCN(c2nc(OC[C@@H]3CCCN3C)nc3c2CCN(c2cc(O)cc4ccccc24)C3)CC1CC#N` (stereo partly drawn) [Example 182, 2-[4-[7-(3-hydroxy-1-naphthyl)-2-[[(2S)-1-methylpyrrolidin-2-yl]methoxy]-6,8-dihydro-5H-pyrido[3,4-d]pyrimidin-4-yl]-1-prop-2-enoyl-piperazin-2-yl]acetonitrile], for which the POC result in experiment [1] (setting [3]) is “C (“C”>50% POC)”. Further, the IC50 in experiment [2] fell in the range of 0.1 to 1000 nM.

For `Cc1cccc2cccc(N3CCc4c(nc(OC[C@@H]5CCCN5C)nc4N4CCN(C(=O)C#CCO)[C@@H](CC#N)C4)C3)c12` [Example 508, 2-((S)-1-(4-hydroxybut-2-ynoyl)-4-(7-(8-methylnaphthalen-1-yl)-2-(((S)-1-methylpyrrolidin-2-yl)methoxy)-5,6,7,8-tetrahydropyrido[3,4-d]pyrimidin-4-yl)piperazin-2-yl)acetonitrile], the IC50 in experiment [2] lay in the range of 0.1 to 1000 nM.

As to `C=CC(=O)N1CCN(c2nc(OC[C@@H]3CCCN3CC(=O)N(C)C)nc3c2CCN(c2cccc4ccccc24)C3)CC1CC#N` (stereo partly drawn) [Example 398, 2-((2S)-2-(((4-(4-acryloyl-3-(cyanomethyl)piperazin-1-yl)-7-(naphthalen-1-yl)-5,6,7,8-tetrahydropyrido[3,4-d]pyrimidin-2-yl)oxy)methyl)pyrrolidin-1-yl)-N,N-dimethylacetamide], in experiment [2], the IC50 was in the range of 0.1 to 1000 nM.

As for `C=CC(=O)N1CCN(c2nc(OCCCN3C[C@@H]4C[C@H]3CO4)nc3c2CCN(c2c(C)ccc4[nH]ncc24)C3)CC1` [Example 181, 1-(4-(2-(3-((1S,4S)-2-oxa-5-azabicyclo[2.2.1]heptan-5-yl)propoxy)-7-(5-methyl-1H-indazol-4-yl)-5,6,7,8-tetrahydropyrido[3,4-d]pyrimidin-4-yl)piperazin-1-yl)prop-2-en-1-one], the IC50 in experiment [2] is over 1000 nM.

In the case of `C=CC(=O)N1CCN(c2nc(OC[C@@H]3CC(F)(F)CN3C)nc3c2CCN(c2cccc4cccc(Cl)c24)C3)C[C@@H]1CC#N` [Example 366, 2-[(2S)-4-[7-(8-chloro-1-naphthyl)-2-[[(2S)-4,4-difluoro-1-methyl-pyrrolidin-2-yl]methoxy]-6,8-dihydro-5H-pyrido[3,4-d]pyrimidin-4-yl]-1-prop-2-enoyl-piperazin-2-yl]acetonitrile], the IC50 in experiment [2] was in the range of 0.1 to 1000 nM.

`C=CC(=O)N1CCN(c2nc(OC[C@@H]3C[C@@H](OC)CN3C)nc3c2CCN(c2cccc4ccccc24)C3)CC1CC#N` (stereo partly drawn) [Example 381, 2-(1-acryloyl-4-(2-(((2S,4R)-4-methoxy-1-methylpyrrolidin-2-yl)methoxy)-7-(naphthalen-1-yl)-5,6,7,8-tetrahydropyrido[3,4-d]pyrimidin-4-yl)piperazin-2-yl)acetonitrile]: the IC50 in experiment [2] is 0.1 to 1000 nM.

`C=CC(=O)N1CCN(c2nc(O[C@H](C)CN(C)C)nc3c2CCN(c2cc(O)cc(Cl)c2C(C)C)C3)CC1` [Example 76, (R)-1-(4-(7-(3-chloro-5-hydroxy-2-isopropylphenyl)-2-((1-(dimethylamino)propan-2-yl)oxy)-5,6,7,8-tetrahydropyrido[3,4-d]pyrimidin-4-yl)piperazin-1-yl)prop-2-en-1-one]: in experiment [2], the IC50 is over 1000 nM.

Consider `C=CC(=O)N1CCN(c2nc(OC[C@@H]3CCCN3C)nc3c2CCN(c2cccc4cccc(CC)c24)C3)C[C@@H]1CC#N` [Example 360, 2-[(2S)-4-[7-(8-ethyl-1-naphthyl)-2-[[(2S)-1-methylpyrrolidin-2-yl]methoxy]-6,8-dihydro-5H-pyrido[3,4-d]pyrimidin-4-yl]-1-prop-2-enoyl-piperazin-2-yl]acetonitrile], for which, in experiment [2], the 50% inhibitory concentration (IC50) lay in the range of 0.1 to 1000 nM.
